In patent EP0215300A2, “Use of diazaphosphorines for combating endoparasites” (BAYER AG, priority 1985, dated 1987):

Experiments:
Caenorhabditis elegans = experiment: In vitro nematode test (inhibition of reproduction); format: cell-based; details: 168 h; concentration at which reproduction is prevented; 7 days at 22°C; E.coli suspension in M9 buffer; read-out: Minimale effektive Dosis
Description: 10-^4 g Wirkstoff werden in 1 ml Wasser oder 0,1 ml Dimethylsulfoxid (DMSO) gelöst. Diese Lösung wurde auf eine Replica-Platte gegeben. Dazu wurden 2 ml einer E.coli-Suspension gegeben, zu der man 10-20 weibliche Tiere oder Larven von Caenorhabditis elegans in 0,5 ml sterile M9 Pufferlösung gegeben hat. Die E.coli-Suspension wurde hergestellt indem man 300 ml einer Ubernachtkultur eines Uracil-bedürftigen E.coli-Stammes mit 1,8 1 steriler M9 Pufferlösung versetzte.
Der Versuchsansatz wurde 7 Tage bei 22°C inkubiert und danach ausgewertet. Es wurde bewertet inwieweit der Wirkstoff die Vermehrung beeinträchtigt und die Konzentration angegeben bei der die Vermehrung verhindert wird. Dabei wurden folgende Ergebnisse erhalten: • In vitro Nematodentest

Strongyloides ratti = experiment: In vivo nematode test in experimentally infected rats; details: rats (Ratten), oral by gavage on three consecutive days from day 7 after infection, killed day 13, at least 95 % of parasites killed, read-out: minimale effektive Dosis
From the text: (§1) Experimentell mit Strongyloides ratti infizierte Ratten werden 7 Tage nach der Infektion an drei aufeinanderfolgenden Tagen oral mittels Schlundsonde behandelt. Die Tiere werden 13 Tage nach der Infektion getötet und die Zahl der Parasiten bestimmt. Es wird die Wirkstoffkonzentration angegeben, bei der mindestens 95 % der Parasiten abgetötet wurden (minimale effektive Dosis): […]

Heterakis spumora = experiment: In vivo nematode test in experimentally infected mice; details: Mus musculus; mice (Mäuse); oral by gavage on four consecutive days from day 32 after infection; killed day 39; at least 95 % of parasites killed; read-out: minimale effektive Dosis
From the text: as §1, with “Heterakis spumora” for “Strongyloides ratti”, “Mäuse” for “Ratten”, “32” for “7”, “vier” for “drei”, “39” for “13”, “angegeben” for “angegeben,”

Hymenolepis nana = experiment: as above; details: Rodentolepis nana; mice (Mäuse); oral by gavage on four consecutive days from day 10 after infection; killed day 17; at least 95 % of parasites killed; read-out: minimale effektive Dosis
From the text: Experimeltell mit Hymenolepis nana infizierte Mäuse werden 10 Tage nach der Infektion an vier aufeinanderfolgenden Tagen oral mittels Schlundsonde behandelt. Die Tiere werden 17 Tage nach Infektion getötet und die Zahl der Parasiten bestimmt. Es wird die Wirkstoffkonzentration angegeben, bei der mindestens 95 % der Parasiten abgetötet wurden (minimale effektive Dosis): […]

For `CN1C(=O)C(C(=O)Nc2cccc(C(F)(F)F)c2)C(=O)N(C)P1(=O)Oc1cccc(Cl)c1` (stereo not shown) [Beispiel 36], which minimal effective concentration (Caenorhabditis elegans) is on record?
Its minimal effective concentration is 10 µg/mL.

How did the minimal effective dose (Strongyloides ratti) turn out when `CN1C(=O)C(C(=O)Nc2cccc(Cl)c2)C(=O)N(C)P1(=O)Oc1cccc(Cl)c1` (stereo not shown) [Beispiel 11] was run?
Its minimal effective dose is 10 mg/kg.

And the minimal effective concentration (Caenorhabditis elegans)?
The minimal effective concentration was 1 µg/mL.

Which results are given for `CCN1C(=O)C(C(=O)Nc2cccc(C(F)(F)F)c2)C(=O)N(C)P1(=O)Oc1cccc(Cl)c1` (stereo not shown) [Beispiel 20]?
minimal effective dose (Strongyloides ratti): 250 mg/kg; minimal effective concentration (Caenorhabditis elegans): 10 µg/mL

Which minimal effective concentration (Caenorhabditis elegans) does the source give for `O=C(Nc1ccc(Cl)c(Cl)c1)C1C(=O)N(c2ccccc2)P(=O)(Oc2ccccc2)N(c2ccccc2)C1=O` (stereo not shown) [Beispiel 14] here?
Its minimal effective concentration is 100 µg/mL.

With `CN1C(=O)C(C(=O)Nc2ccc(C(F)(F)F)cc2)C(=O)N(C)P1(=O)Oc1ccc(Cl)cc1` (stereo not shown) [Beispiel 6] as the molecule, how does the minimal effective concentration (Caenorhabditis elegans) read?
The minimal effective concentration was 1 µg/mL.

Which minimal effective concentration (Caenorhabditis elegans) does the source give for `CN1C(=O)C(C(=O)Nc2cccc(Cl)c2)C(=O)N(C)P1(=O)Oc1ccc(Cl)cc1` (stereo not shown) [Beispiel 12] here?
The minimal effective concentration was 100 µg/mL.

For `CN1C(=O)C(C(=O)Nc2ccc(Cl)cc2)C(=O)N(C)P1(=O)Oc1ccc(Cl)cc1` (stereo not shown) [Beispiel 10], which minimal effective concentration (Caenorhabditis elegans) is on record?
Its minimal effective concentration is 1 µg/mL.

Which minimal effective concentration (Caenorhabditis elegans) does the source give for `CC(C)N1C(=O)C(C(=O)Nc2ccc(C(F)(F)F)cc2)C(=O)N(C)P1(=O)Oc1cccc(Cl)c1` (stereo not shown) [Beispiel 17] here?
The minimal effective concentration was 10 µg/mL.

With `CN1C(=O)C(C(=O)Nc2ccc(C(F)(F)F)cc2)C(=O)N(C)P1(=O)Oc1ccccc1` (stereo not shown) [Beispiel 8] as the molecule, how does the minimal effective dose (Strongyloides ratti) read?
Its minimal effective dose is 25 mg/kg.

What about the minimal effective concentration (Caenorhabditis elegans) of the same molecule?
The minimal effective concentration was 10 µg/mL.

`CN1C(=O)C(C(=O)Nc2cccc(C(F)(F)F)c2)C(=O)N(C)P1(=O)Oc1ccc(Cl)cc1` (stereo not shown) [Beispiel 1] was tested. Which minimal effective concentration (Caenorhabditis elegans) did it give?
Its minimal effective concentration is 10 µg/mL.

Which minimal effective concentration (Caenorhabditis elegans) does the source give for `Cc1cccc(OP2(=O)N(C)C(=O)C(C(=O)Nc3ccc(Cl)c(Cl)c3)C(=O)N2C(C)C)c1` (stereo not shown) [Beispiel 35] here?
Its minimal effective concentration is 10 µg/mL.

How did the minimal effective concentration (Caenorhabditis elegans) turn out when `Cc1cccc(OP2(=O)N(C)C(=O)C(C(=O)Nc3cccc(Cl)c3)C(=O)N2C(C)C)c1` (stereo not shown) [Beispiel 28] was run?
Its minimal effective concentration is 100 µg/mL.

Which minimal effective concentration (Caenorhabditis elegans) does the source give for `CC(C)N1C(=O)C(C(=O)Nc2cccc(Cl)c2)C(=O)N(C)P1(=O)Oc1cccc(Cl)c1` (stereo not shown) [Beispiel 18] here?
The minimal effective concentration was 10 µg/mL.

Which minimal effective concentration (Caenorhabditis elegans) does the source give for `Cc1cccc(OP2(=O)N(C)C(=O)C(C(=O)Nc3cccc(C(F)(F)F)c3)C(=O)N2C(C)C)c1` (stereo not shown) [Beispiel 27] here?
The minimal effective concentration was 10 µg/mL.

Which results are given for `CC(C)N1C(=O)C(C(=O)Nc2cccc(C(F)(F)F)c2)C(=O)N(C)P1(=O)Oc1cccc(Cl)c1` (stereo not shown) [Beispiel 22]?
minimal effective dose (Heterakis spumora): 250 mg/kg; minimal effective dose (Hymenolepis nana): 250 mg/kg; minimal effective concentration (Caenorhabditis elegans): 10 µg/mL

With `CC(C)N1C(=O)C(C(=O)Nc2cccc(Cl)c2)C(=O)N(C(C)C)P1(=O)Oc1cccc(Cl)c1` (stereo not shown) [Beispiel 2] as the molecule, how does the minimal effective concentration (Caenorhabditis elegans) read?
Its minimal effective concentration is 100 µg/mL.

How did the minimal effective concentration (Caenorhabditis elegans) turn out when `CN1C(=O)C(C(=O)Nc2ccc(Cl)c(Cl)c2)C(=O)N(c2ccccc2)P1(=O)Oc1ccc(Cl)cc1` (stereo not shown) [Beispiel 37] was run?
Its minimal effective concentration is 10 µg/mL.

Which minimal effective concentration (Caenorhabditis elegans) does the source give for `CC(C)N1C(=O)C(C(=O)Nc2cccc(C(F)(F)F)c2)C(=O)N(C(C)C)P1(=O)Oc1cccc(Cl)c1` (stereo not shown) [Beispiel 3] here?
Its minimal effective concentration is 100 µg/mL.

`O=C(Nc1ccc(Cl)c(Cl)c1)C1C(=O)N(c2ccccc2)P(=O)(Oc2ccc(Cl)cc2)N(c2ccccc2)C1=O` (stereo not shown) [Beispiel 13] was tested. Which minimal effective concentration (Caenorhabditis elegans) did it give?
The minimal effective concentration was 10 µg/mL.

For `Cc1cccc(OP2(=O)NC(=O)C(C(=O)Nc3cccc(C(F)(F)F)c3)C(=O)N2C)c1` (stereo not shown) [Beispiel 34], which minimal effective concentration (Caenorhabditis elegans) is on record?
The minimal effective concentration was 100 µg/mL.
